Where two headings read alike, the source gives them in different places. Where no end group is shown, it is not given here.
Legend:
[1] = test system: Micrococcus luteus (ATCC9341); type: cell-based; details: ATCC9341
Experimental: (§1) According to the NCCLS guidelines for susceptibility test of novel antimicrobial compounds, we found a broad spectrum of activity of Cat1 (Methods for Dilution Antimicrobial Susceptibility Tests for Bacteria That Grow Aerobically; Approved Standard-Fifth Edition. NCCLS document M7-A5 (ISBN1-56238-394-9)).
(§2) In another campaign, the specific MICs of Cat1 were determined against a variety of microbial strains relevant for wound infections. As recommended in the above-mentioned NCCLS protocol, the strains were grown in cationic adjusted Muller-Hinton Broth. The highest concentration tested was 32 μg/ml.
(§3) The antimicrobial activity of the polypeptides of the invention was analyzed using the Microdilution Broth Assay (see Example 1) with Mueller Hinton Broth (MHB) media. Four different bacterial strains were tested in this setup; Micrococcus luteus (ATCC 9341), Pseudomonas aeruginosa (ATCC 27853), Escherichia coli (ATCC 10536) and Klebsiella pneumoniae (DSM681). The amino acid sequence of the polypeptides and the Minimal Inhibitory concentrations (MIC, microgram/ml) obtained is presented in Table 7 below.

[2] = test system: Pseudomonas aeroginosa (ATCC27853); type: cell-based, Pseudomonas aeruginosa; details: ATCC27853
Experimental: as §1, §2
Minimal inhibitory concentrations of Cat1 were also determined using cation-adjusted Mueller hinton broth (MHB) in the microbroth dilution assay, wherein MHB was used with different modifications as depicted in Table 2 below. The selected test organism was Pseudomonas aeroginosa (ATCC 27853). […]

[3] = test system: Eschericia coil (ATCC10536); type: cell-based, Escherichia coli; details: ATCC10536
Experimental: as §1, §3

Escherichia coli Top10 = assay: Radial Diffusion Assay using minimal conditions (MEC); type: cell-based; details: Table 8
Experimental: (§4) A modified version of a previously published protocol has been applied in the detection of antimicrobial activity (Lehrer et al., (1991) Ultra sensitive assays for endogenous antimicrobial polypeptides J Immunol Methods 137: 167-173). Target bacteria (10^6 colony forming units (CFU)) were added to 10 ml of underlay agarose (1% low electro-endosmosis agarose, 0.03% Trypticase soy broth, 10 mM sodium phosphate, pH 7.4, 37 degrees Celsius). Suspension was solidified on an INTEGRID Petri Dish (Becton Dickinson Labware). A 3 mm Gel Puncher was used to make holes in the underlay agarose (Amersham Pharmacia Biotech, Sweden). Samples were added to the holes and incubated at 37 degrees Celsius, 3 hours. An overlay was poured on top and the plate was incubated overnight (LB media, 7.5% Agar). Antimicrobial activity was seen as bacterial clearing zones around the wells. Living cells was counterstained by adding 10 ml, 0.2 mM MTT (3-(4,5-Dimethylthiazol-2-yl)-2,5-diphenyltetrazolium bromide Thiazolyl blue).
(§5) The antimicrobial activity of the polypeptides of the invention was also analyzed in a Radial Diffusion Assay (see Example 1) using minimal conditions. Two bacterial strains were tested in this setup; Staphylococcus camosus and Escherichia coli Top10. The amino acid sequence of the polypeptides and the Minimal Effective Concentration (MEC, microgram/ml) obtained is presented in table 8 below.

Staphylococcus camosus = assay: as above; type: cell-based; details: Table 8
Experimental: as §4, §5

E. coli TOP10 = type: cell-based
Experimental: A range of synthetic antimicrobial polypeptides were expressed in E. coli TOP10 (Invitrogen) using arabinose as inducer, as disclosed in Example 1 of International patent application WO 00/73433 (with minor modifications). […] Briefly, fresh overnight cultures grown in RM medium containing 0.2% glucose and ampicillin (100 μg/ml) were diluted 300-fold into 150 microliter of RM containing 0.2% glycerol and ampicillin (100 μg/ml) and different concentrations of arabinose (0, 0.01% or 0.1%) in a microtiter plate and incubated at 37 degrees Celsius with vigorous shaking. The growth curve was monitored by measuring OD450 using a Bioscreen C Microbiology reader (Thermo Electron Corporation) at intervals of 30 minutes for 14 hours (see Invitrogen protocol of the pBAD/gill A, B and C vectors catalogue nos. V450-01 for buffer and media composition). The percentage of growth inhibition was calculated as the end point OD measurement of each sample divided by the end point OD measurement obtained from cells containing the control vector and multiplied by 100. The formula is the following: [formula] where “blank OD” corresponds to the OD of an empty well.

[4] = test system: Klebsiella pneumoniae (DSM681); type: cell-based
Experimental: as §1, §3

[5] = Table 4, 0.01% arabinose, end point OD450, 14 hours
[6] = Table 4, 0.1% arabinose, end point OD450, 14 hours
[7] = Table 5, 0.1% arabinose, end point OD450, 14 hours

Sequence	MIC [1]	MIC [2]	MIC [3]	MEC (Escherichia coli Top10)	MEC (Staphylococcus camosus)	Growth inhibition using 0.1% arabinose (%) (E. coli TOP10; TOP10, 14 h)	Growth inhibition using 0.1% arabinose (%) (E. coli TOP10; [7])	also measured
GLLKRLGRKIGKKLKKIAR [SEQ ID NO: 66, GLLKRLGRKIGKKLKKIAR]	64 µg/mL	64 µg/mL	8 µg/mL	13.5 µg/mL	2 µg/mL	100%	–	Growth inhibition using 0.01% arabinose (%) (E. coli TOP10; TOP10, 14 h): 92%
GLLRRFRKKIGKKLKKIAR [SEQ ID NO: 62, GLLRRFRKKIGKKLKKIAR]	64 µg/mL	64 µg/mL	16 µg/mL	28.0 µg/mL	1.1 µg/mL	98%	–	MIC [4]: 32 to 64 µg/mL; Growth inhibition using 0.01% arabinose (%) (E. coli TOP10; TOP10, 14 h): 94%
GLLRRFWKKIGKKLKKFGQKIKPLPKLVP [SEQ ID NO: 41]	32 µg/mL	16 µg/mL	32 µg/mL	16.6 µg/mL	3.8 µg/mL	96%	–	MIC [4]: 32 µg/mL
GLLRRLRKKIGKKLKKIAR [SEQ ID NO: 59, GLLRRLRKKIGKKLKKIAR]	32 µg/mL	8 µg/mL	16 µg/mL	18.3 µg/mL	1.8 µg/mL	100%	–	MIC [4]: 32 µg/mL; Growth inhibition using 0.01% arabinose (%) (E. coli TOP10; TOP10, 14 h): 93%
GLLRRLWRKIGRKLKKYGQKIKALRKLVP [SEQ ID NO: 13]	32 µg/mL	32 µg/mL	64 µg/mL	27.0 µg/mL	4.4 µg/mL	100%	–	MIC [4]: 32 µg/mL; Growth inhibition using 0.01% arabinose (%) (E. coli TOP10; TOP10, 14 h): 96%
GRFRRFRKKIGKKLKKIGLVIKHIRILVP (Synthetic antimicrobial peptide) [SEQ ID NO: 14]	–	–	–	–	–	–	–	Growth inhibition using 0.01% arabinose (%) (E. coli TOP10; [5]): 94%; Growth inhibition using 0.1% arabinose (%) (E. coli TOP10; [6]): 100%
GRFRRLGRKIGEKLKKFGQVIKAIRILVP (Synthetic antimicrobial peptide) [SEQ ID NO: 42]	–	–	–	–	–	–	95%	–
GRIKRVGEKIGKKLKKIGQVIKHLRILVP (Synthetic antimicrobial peptide) [SEQ ID NO: 38]	–	–	–	8.5 µg/mL	8 µg/mL	–	96%	–
GRIRRLRRKIRKKLKKYGQKIKAIRKIVP (GRLRRLRRKIRKKLKKYGQKIKAIRKLVP; Synthetic antimicrobial peptide) [SEQ ID NO: 27]	–	–	–	–	–	–	96%	–
GRLRRFGKKIGKKIKKFGQLIKALRILVP (GRLRRFGKKIGKKLKKFGQLIKALRILVP; Synthetic antimicrobial peptide) [SEQ ID NO: 40]	–	–	–	–	–	–	95%	–
GRLRRFRKKIGKKLKKIGQMIKHIRILVP (Synthetic antimicrobial peptide) [SEQ ID NO: 30]	–	–	–	–	–	–	95%	–
GRLRRLGKIUGEKLKKFGQMIKHIRILVP (GRLRRLGKKIGEKLKKFGQMIKHIRILVP; Synthetic antimicrobial peptide) [SEQ ID NO: 53]	–	–	–	–	–	–	84%	–
GRLRRLRRKIGEKLKKFGQVIKALRILVP (Synthetic antimicrobial peptide) [SEQ ID NO: 12]	–	–	–	–	–	–	–	Growth inhibition using 0.01% arabinose (%) (E. coli TOP10; [5]): 94%; Growth inhibition using 0.1% arabinose (%) (E. coli TOP10; [6]): 99%
GRLRRLWRKIGRKLKKYGQVIKHLRILVP (Synthetic antimicrobial peptide) [SEQ ID NO: 17]	–	–	–	–	–	–	–	Growth inhibition using 0.01% arabinose (%) (E. coli TOP10; [5]): 94%; Growth inhibition using 0.1% arabinose (%) (E. coli TOP10; [6]): 100%
